In patent US20220087983A1, “ACTIVATING PYRUVATE KINASE R” (FORMA Therapeutics, Inc., priority 2020, published 2022):
In brackets after ≈: the same amount, converted by molar mass. Several values for one entry are separate records, joined by “and”; a condition that tells them apart may be missing. Equal values may be shown once.

Key:
aromatase = molecular target: T1, aromatase (Homo sapiens, UniProt P11511); assay: Aromatase inhibition; details: non-clinical testing
T1 sequence (P11511 1-503): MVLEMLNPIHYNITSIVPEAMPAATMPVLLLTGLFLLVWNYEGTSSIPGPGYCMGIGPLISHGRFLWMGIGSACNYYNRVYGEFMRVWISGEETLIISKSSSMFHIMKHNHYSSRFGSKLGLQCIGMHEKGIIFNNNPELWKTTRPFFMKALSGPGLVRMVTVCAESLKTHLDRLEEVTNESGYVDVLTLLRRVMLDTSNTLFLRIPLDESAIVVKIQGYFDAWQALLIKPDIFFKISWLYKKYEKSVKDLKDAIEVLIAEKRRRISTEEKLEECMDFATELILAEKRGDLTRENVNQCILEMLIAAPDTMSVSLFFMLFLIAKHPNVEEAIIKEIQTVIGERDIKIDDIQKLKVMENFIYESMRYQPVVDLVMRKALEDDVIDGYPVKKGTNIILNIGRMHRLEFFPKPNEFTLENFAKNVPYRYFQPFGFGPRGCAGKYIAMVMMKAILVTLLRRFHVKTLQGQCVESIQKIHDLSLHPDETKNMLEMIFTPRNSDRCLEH

[1] = Solubility in water or buffered solutions; type: physicochemical; details: aqueous buffer, pH about 1.07 to about 8.69
ATP blood levels = assay: Phase 1: blood ATP levels in SCD patients; type: in vivo, human; details: single 700 mg dose (FIG. 54A)
Procedure: In this study, SAD/MAD cohorts are randomized (3 to 1) to receive Compound 1 or placebo (P). Compound 1 was evaluated first in 4 healthy SAD cohorts and 4 healthy MAD (14-day dosing period) cohorts. Based on the safety, and PK/PD profile from HS, Compound 1 is then evaluated in 1 SCD SAD cohort and 2 SCD MAD cohorts. Specifically, based on the safety and pharmacokinetic/pharmacodynamics (PK/PD) profile in healthy volunteer studies, Compound 1 is evaluated in patients (pts) with SCD, first in a single dose (SD or SAD) cohort and then in multiple-dose (MD or MAD) cohorts (14-day and 12-week). Safety assessments include AEs, vital signs, ECGs and laboratory parameters. PK/PD blood sampling was performed on Day 1 (SAD/MAD) and Day 14 (MAD) and up to 72 h after the last dose and at the end-of-study visit. […]
The following table reports the mean percentage change in ATP blood levels, relative to baseline, measured over time in SCD patients after a single dose of Compound 1 (700 mg):
ATP levels were increased from baseline in patients receiving Compound 1, resulting in improved RBC function and reduced hemoloysis. The following table reports the mean percentage change in ATP blood levels, relative to baseline, measured over time after the first dose on days 1 and 14 in SCD patients who received daily doses of Compound 1 (300 mg QD) for 14 days: […]

[2] = system: H295R adreno-cortical carcinoma cell line; assay: Steroid modulation screen in vitro; type: cell-based; details: tested 200 to 0.0002 μM; only at the top concentration
Procedure: To assess potential effects on steroidogenesis, Compound 1 was screened for steroid modulation in vitro using the H295R adreno-cortical carcinoma cell line (at 200 to 0.0002 μM) and in an assay to monitor cell viability (MTT Kit). Compound 1 indicated steroid modulation potential (% over vehicle) only at 200 μM, the top concentration tested, with 100% cellular viability at concentrations≤20 μM (90% viability at 200 μM).

PKR in mouse RBCs = molecular target: T2, PKR in mouse RBCs (Mus musculus, UniProt P53657); assay: PKR activation in mouse red blood cells; type: cell-based
T2 construct: endogenous in cells; host or cells: mouse RBCs freshly isolated from whole blood
T2 sequence (P53657 whole entry): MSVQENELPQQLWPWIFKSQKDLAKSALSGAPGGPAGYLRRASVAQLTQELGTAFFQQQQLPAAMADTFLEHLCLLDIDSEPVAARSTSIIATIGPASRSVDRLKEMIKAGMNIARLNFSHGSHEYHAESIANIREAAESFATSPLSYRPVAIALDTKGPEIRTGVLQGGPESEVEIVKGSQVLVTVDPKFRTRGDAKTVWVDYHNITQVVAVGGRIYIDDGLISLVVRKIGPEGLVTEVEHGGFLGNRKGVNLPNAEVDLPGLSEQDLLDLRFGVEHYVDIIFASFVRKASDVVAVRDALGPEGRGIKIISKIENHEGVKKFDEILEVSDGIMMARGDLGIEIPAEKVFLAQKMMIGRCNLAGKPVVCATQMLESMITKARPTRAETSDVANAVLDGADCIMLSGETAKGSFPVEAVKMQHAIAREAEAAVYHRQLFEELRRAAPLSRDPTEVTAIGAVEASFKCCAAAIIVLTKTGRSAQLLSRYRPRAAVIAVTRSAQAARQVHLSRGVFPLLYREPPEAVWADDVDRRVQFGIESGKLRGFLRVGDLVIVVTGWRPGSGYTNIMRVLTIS
Text: Mouse RBCs were isolated fresh from whole blood using a Ficoll gradient and assayed with methods similar to those used in the human RBCs assays.

In the case of `O=C([C@H](CO)c1ccccc1)N1CC2=C(C1)CN(S(=O)(=O)c1cnc3c(c1)OCCO3)C2` (single isomer, unassigned) [Compound 1], the aromatase inhibition (aromatase) is reported as “absence of aromatase inhibition”, the solubility [1] is reported as 22 to 25 µg/mL (≈ 48.1 to 54.6 µM) and the “lag of maximum ATP increase behind maximum plasma concentration” value (ATP blood levels) is reported as “at least 24 hours”. The “concentration at which steroid modulation potential (% over vehicle) was indicated” value [2] was 200 µM, the “Max − Min (%)” value (PKR in mouse RBCs; individual replicates 1-2) was <50% and <100% and the “Mean Max − Min (%)” value (PKR in mouse RBCs; mean) was <100%.
